Measurements from patent publication US8648116B2, “Derivatives of N-(arylamino) sulfonamides including polymorphs as inhibitors of MEK as well as compositions, methods of use and methods for preparing the same” (Ardea Biosciences, Inc., priority 2005, dated 2014).
Like-named read-outs stand apart in the source and are kept apart here. Marks after values point to notes of the source that are not given here.

Experiments:
human tumor cell lines = test: In vitro cancer screen (SRB; GI50, TGI, LC50); settings: for CC50: read-out: LC50
A375 melanoma tumors = test: Anti-tumor xenograft activity, TGI and TGD (Example 94); type: in vivo, nu/nu mice
Experimental: (§1) Human tumors were implanted in nu/nu mice. Compound A was administered orally for 14 days once tumors were approximately 100 mm^3 in size. Tumor growth inhibition (TGI) was determined after 14 days of treatment as the reduction in the size of tumors in treated groups versus vehicle controls. The time to endpoint (TTE) was calculated as the time for the tumor to reach the specified endpoint volume or the last day of the study, whichever came first. Treatment outcome was determined from percent tumor growth delay (% TGD), defined as the percent increase in median TTE of treated versus vehicle-treated control mice. Animals were also monitored for regression responses. Levels of pERK in tumors and brain were determined by Western blots and correlated with plasma levels of Compound A for the pharmacodynamic/pharmacokinetic study. A number of tumor models were evaluated with different doses and dosing regimens. […] The effect of different dosing regimens was evaluated in A375 xenografts.
Female nu/nu mice were implanted with A375 Melanoma, Colo205 Colon Tumor, A431 Epidermoid Tumor or HT-29 Colon Tumor cells, which were allowed to grow to 100-200 mm^3. Compound A or vehicle was administered orally (25 mg/kg, 50 mg/kg or 100 mg/kg), once a day, for 14 days.
Tumor Growth Inhibition for the groups treated with 25 mg/kg Compound A were calculated for the indicated tumor xenografts. Tumor Growth Inhibition was measured at the end of once daily dosing for 14 days and calculated according to:
Female nu/nu mice were implanted with A375 tumor cells, which were allowed to grow to 100-200 mm^3. Compound. […] Tumor Growth Inhibition was measured at the end of once daily dosing for 14 days and calculated according to: […]

HT29 colon cancer tumors = test: Anti-tumor xenograft activity, TGI (Example 94); type: in vivo, nu/nu mice; settings: 25 mg/kg QD oral, 14 days
Experimental: as §1
Female nu/nu mice were implanted with A375 Melanoma, Colo205 Colon Tumor, A431 Epidermoid Tumor or HT-29 Colon Tumor cells, which were allowed to grow to 100-200 mm^3. […]
Tumor Growth Inhibition for the groups treated with 25 mg/kg Compound A were calculated for the indicated tumor xenografts. Tumor Growth Inhibition was measured at the end of once daily dosing for 14 days and calculated according to: […]

[1] = A549/ATCC (Non-Small Cell Lung Cancer)
[2] = EKVX (Non-Small Cell Lung Cancer)
[3] = HOP-62 (Non-Small Cell Lung Cancer)
[4] = HOP-92 (Non-Small Cell Lung Cancer)
[5] = NCI-H23 (Non-Small Cell Lung Cancer)
[6] = NCI-H226 (Non-Small Cell Lung Cancer)
[7] = NCI-H322M (Non-Small Cell Lung Cancer)
[8] = NCI-H460 (Non-Small Cell Lung Cancer)
[9] = NCI-H522 (Non-Small Cell Lung Cancer)

COc1cc(F)c(F)c(Nc2ccc(I)cc2F)c1NS(=O)(=O)C1(C[C@H](O)CO)CC1 gave a GI50 (human tumor cell lines; 786-0 (Renal Cancer)) of 5.13 µM, a TGI (human tumor cell lines; 786-0 (Renal Cancer)) of 23.442 µM and a GI50 (human tumor cell lines; A498 (Renal Cancer)) of 0.191 µM. For the same compound, the TGI (human tumor cell lines; A498 (Renal Cancer)) was 4.169 µM, the GI50 (human tumor cell lines; [1]) was 0.589 µM and the TGI (human tumor cell lines; [1]) was 64.565 µM. It also gave a GI50 (human tumor cell lines; ACHN (Renal Cancer)) of 0.275 µM, a TGI (human tumor cell lines; ACHN (Renal Cancer)) of 21.878 µM and a GI50 (human tumor cell lines; BT-549 (Breast Cancer)) of 5.75 µM. It also gave a TGI (human tumor cell lines; BT-549 (Breast Cancer)) of 20.893 µM, a GI50 (human tumor cell lines; CAKI-1 (Renal Cancer)) of 0.389 µM and a TGI (human tumor cell lines; CAKI-1 (Renal Cancer)) of 26.915 µM. The GI50 (human tumor cell lines; CCRF-CEM (Leukemia)) was 17.4 µM, the TGI (human tumor cell lines; CCRF-CEM (Leukemia)) was 60.256 µM and the GI50 (human tumor cell lines; DU-145 (Prostate Cancer)) was 2.14 µM. The TGI (human tumor cell lines; DU-145 (Prostate Cancer)) was 22.387 µM, the GI50 (human tumor cell lines; [2]) was 0.214 µM and the TGI (human tumor cell lines; [2]) was 13.804 µM. The GI50 (human tumor cell lines; HCC-2998 (Colon Cancer)) was 0.01 µM, the TGI (human tumor cell lines; HCC-2998 (Colon Cancer)) was 0.035 µM and the GI50 (human tumor cell lines; HCT-15 (Colon Cancer)) was 0.603 µM. For the same compound, the TGI (human tumor cell lines; HCT-15 (Colon Cancer)) was 16.982 µM, the GI50 (human tumor cell lines; HCT-116 (Colon Cancer)) was 0.195 µM and the TGI (human tumor cell lines; HCT-116 (Colon Cancer)) was 12.589 µM. For the same compound, the GI50 (human tumor cell lines; HL-60(TB) (Leukemia)) was 0.01 µM, the TGI (human tumor cell lines; HL-60(TB) (Leukemia)) was 100.000 µM and the GI50 (human tumor cell lines; [3]) was 0.069 µM. It also gave a TGI (human tumor cell lines; [3]) of 12.589 µM, a GI50 (human tumor cell lines; [4]) of 0.047 µM and a TGI (human tumor cell lines; [4]) of 0.324 µM. The GI50 (human tumor cell lines; HS 578T (Breast Cancer)) was 0.617 µM, the TGI (human tumor cell lines; HS 578T (Breast Cancer)) was 13.490 µM and the GI50 (human tumor cell lines; HT29 (Colon Cancer)) was 0.026 µM. The TGI (human tumor cell lines; HT29 (Colon Cancer)) was 3.090 µM, the GI50 (human tumor cell lines; IGROV1 (Ovarian Cancer)) was 0.018 µM and the TGI (human tumor cell lines; IGROV1 (Ovarian Cancer)) was 0.295 µM. It also gave a GI50 (human tumor cell lines; K-562 (Leukemia)) of 6.61 µM, a TGI (human tumor cell lines; K-562 (Leukemia)) of 100.000 µM and a GI50 (human tumor cell lines; KM12 (Colon Cancer)) of 0.229 µM. It also gave a TGI (human tumor cell lines; KM12 (Colon Cancer)) of 13.490 µM, a GI50 (human tumor cell lines; LOX IMVI (Melanoma)) of 0.195 µM and a TGI (human tumor cell lines; LOX IMVI (Melanoma)) of 10.715 µM. The GI50 (human tumor cell lines; M14 (Melanoma)) was 0.015 µM, the TGI (human tumor cell lines; M14 (Melanoma)) was 0.166 µM and the GI50 (human tumor cell lines; MALME-3M (Melanoma)) was 0.01 µM. For the same compound, the TGI (human tumor cell lines; MALME-3M (Melanoma)) was 0.014 µM, the GI50 (human tumor cell lines; MCF7 (Breast Cancer)) was 11 µM and the TGI (human tumor cell lines; MCF7 (Breast Cancer)) was 30.903 µM. It also gave a GI50 (human tumor cell lines; MDA-MB-231 (Breast Cancer)) of 0.069 µM, a TGI (human tumor cell lines; MDA-MB-231 (Breast Cancer)) of 10.471 µM and a GI50 (human tumor cell lines; MDA-MB-435 (Breast Cancer)) of 0.035 µM. The TGI (human tumor cell lines; MDA-MB-435 (Breast Cancer)) was 12.303 µM, the GI50 (human tumor cell lines; MDA-MB-468 (Breast Cancer)) was 0.019 µM and the TGI (human tumor cell lines; MDA-MB-468 (Breast Cancer)) was 10.233 µM. For the same compound, the GI50 (human tumor cell lines; MOLT-4 (Leukemia)) was 11 µM, the TGI (human tumor cell lines; MOLT-4 (Leukemia)) was 69.183 µM and the GI50 (human tumor cell lines; [5]) was 0.056 µM. For the same compound, the TGI (human tumor cell lines; [5]) was 2.884 µM, the GI50 (human tumor cell lines; [6]) was 3.31 µM and the TGI (human tumor cell lines; [6]) was 24.547 µM. The GI50 (human tumor cell lines; [7]) was 0.162 µM, the TGI (human tumor cell lines; [7]) was 15.488 µM and the GI50 (human tumor cell lines; [8]) was 3.63 µM. It also gave a TGI (human tumor cell lines; [8]) of 19.498 µM, a GI50 (human tumor cell lines; [9]) of 5.25 µM and a TGI (human tumor cell lines; [9]) of 29.512 µM. It also gave a GI50 (human tumor cell lines; NCI/ADR-RES (Breast Cancer)) of 3.47 µM, a TGI (human tumor cell lines; NCI/ADR-RES (Breast Cancer)) of 25.704 µM and a GI50 (human tumor cell lines; OVCAR-3 (Ovarian Cancer)) of 2.51 µM. The TGI (human tumor cell lines; OVCAR-3 (Ovarian Cancer)) was 17.783 µM, the GI50 (human tumor cell lines; OVCAR-4 (Ovarian Cancer)) was 0.562 µM and the TGI (human tumor cell lines; OVCAR-4 (Ovarian Cancer)) was 16.218 µM. The GI50 (human tumor cell lines; OVCAR-5 (Ovarian Cancer)) was 0.017 µM, the TGI (human tumor cell lines; OVCAR-5 (Ovarian Cancer)) was 12.023 µM and the GI50 (human tumor cell lines; PC-3 (Prostate Cancer)) was 8.13 µM. The TGI (human tumor cell lines; PC-3 (Prostate Cancer)) was 37.154 µM, the GI50 (human tumor cell lines; RPMI-8226 (Leukemia)) was 26.9 µM and the TGI (human tumor cell lines; RPMI-8226 (Leukemia)) was 100.000 µM. It also gave a GI50 (human tumor cell lines; SF-268 (CNS Cancer)) of 2.57 µM, a TGI (human tumor cell lines; SF-268 (CNS Cancer)) of 25.704 µM and a GI50 (human tumor cell lines; SF-295 (CNS Cancer)) of 9.33 µM. The TGI (human tumor cell lines; SF-295 (CNS Cancer)) was 23.442 µM, the GI50 (human tumor cell lines; SF-539 (CNS Cancer)) was 1.51 µM and the TGI (human tumor cell lines; SF-539 (CNS Cancer)) was 20.417 µM. For the same compound, the GI50 (human tumor cell lines; SK-MEL-5 (Melanoma)) was 0.062 µM, the TGI (human tumor cell lines; SK-MEL-5 (Melanoma)) was 13.804 µM and the GI50 (human tumor cell lines; SK-MEL-28 (Melanoma)) was 0.028 µM. The TGI (human tumor cell lines; SK-MEL-28 (Melanoma)) was 0.214 µM, the GI50 (human tumor cell lines; SK-OV-3 (Ovarian Cancer)) was 12.9 µM and the TGI (human tumor cell lines; SK-OV-3 (Ovarian Cancer)) was 41.687 µM. It also gave a GI50 (human tumor cell lines; SN12C (Renal Cancer)) of 0.851 µM, a TGI (human tumor cell lines; SN12C (Renal Cancer)) of 18.621 µM and a GI50 (human tumor cell lines; SNB-19 (CNS Cancer)) of 0.251 µM. For the same compound, the TGI (human tumor cell lines; SNB-19 (CNS Cancer)) was 24.547 µM, the GI50 (human tumor cell lines; SNB-75 (CNS Cancer)) was 0.302 µM and the TGI (human tumor cell lines; SNB-75 (CNS Cancer)) was 4.467 µM. It also gave a GI50 (human tumor cell lines; SR (Leukemia)) of 38 µM, a TGI (human tumor cell lines; SR (Leukemia)) of 100.000 µM and a GI50 (human tumor cell lines; SW-620 (Colon Cancer)) of 0.039 µM. The TGI (human tumor cell lines; SW-620 (Colon Cancer)) was 12.589 µM, the GI50 (human tumor cell lines; T-47D (Breast Cancer)) was 4.9 µM and the TGI (human tumor cell lines; T-47D (Breast Cancer)) was 38.019 µM. For the same compound, the GI50 (human tumor cell lines; TK-10 (Renal Cancer)) was 0.224 µM, the TGI (human tumor cell lines; TK-10 (Renal Cancer)) was 23.442 µM and the GI50 (human tumor cell lines; U251 (CNS Cancer)) was 0.891 µM. For the same compound, the TGI (human tumor cell lines; U251 (CNS Cancer)) was 17.378 µM, the GI50 (human tumor cell lines; UACC-62 (Melanoma)) was 0.014 µM and the TGI (human tumor cell lines; UACC-62 (Melanoma)) was 0.170 µM. For the same compound, the GI50 (human tumor cell lines; UACC-257 (Melanoma)) was 0.02 µM, the TGI (human tumor cell lines; UACC-257 (Melanoma)) was 10.233 µM and the GI50 (human tumor cell lines; UO-31 (Renal Cancer)) was 0.158 µM. For the same compound, the TGI (human tumor cell lines; UO-31 (Renal Cancer)) was 11.482 µM, the CC50 (human tumor cell lines; HCT-15 (Colon Cancer)) was 60.3 µM and the CC50 (human tumor cell lines; HT29 (Colon Cancer)) was 29.5 µM. It also gave a CC50 (human tumor cell lines; M14 (Melanoma)) of 29.5 µM, a CC50 (human tumor cell lines; MDA-MB-435 (Breast Cancer)) of 41.7 µM and a CC50 (human tumor cell lines; SF-539 (CNS Cancer)) of 60.3 µM. It also gave a CC50 (human tumor cell lines; SK-MEL-28 (Melanoma)) of 22.4 µM and a CC50 (human tumor cell lines; UACC-62 (Melanoma)) of 20.9 µM.
In the case of COc1cc(F)c(F)c(Nc2ccc(I)cc2F)c1NS(=O)(=O)C1(C[C@H](O)CO)CC1 [Compound A], the “% TGI” value (A375 melanoma tumors; A375 Melanoma xenograft, 25 mg/kg QD oral, 14 days, range from 2 separate studies) is reported as 52-72** %, the “% TGD, significance” value (A375 melanoma tumors; A375 melanoma tumors, 25 or 50 mg/kg once daily (QD)) is reported as “statistically significant” and the “% TGI” value (A375 melanoma tumors; A375 xenografts, 12.5 mg/kg BID) is reported as 79.5%. The “% TGI” value (A375 melanoma tumors; A375 xenografts, 25 mg/kg BID) was 110.1%, the “% TGD” value (A375 melanoma tumors; A375 xenografts, 25 mg/kg QD) was 143% and the “% TGI” value (A375 melanoma tumors; A375 xenografts, 25 mg/kg QD) was 51.7%. The “% TGD” value (A375 melanoma tumors; A375 xenografts, 50 mg/kg QD) was 233%, the “% TGI” value (A375 melanoma tumors; A375 xenografts, 50 mg/kg QD) was 69.9% and the “% TGD” value (A375 melanoma tumors; A375 xenografts, 100 mg/kg orally once every two days) was 91%. For the same compound, the “% TGI” value (HT29 colon cancer tumors) was 56%.
